The target in data set [1] is T1, E. coli topoisomerase IV (Escherichia coli, UniProt P0AFI2+P20083). More on the design: method as in PMID 28507124. The note with it: read-out: E. coli topo IV IC50; cited from earlier work.
The subject of the next data set is S. aureus. As to conditions: different S. aureus strain, printed in column S. aureus NCIMB 50080; cited from earlier work.
In a further data set the test system is E. coli. Further details: method as in PMID 28507124. The note with it: different E. coli strain, printed in column E. coli K12 MG1655; cited from earlier work.
The next data set concerns the target E. coli DNA gyrase (Escherichia coli, UniProt P0AES4+P0AES6). Briefly: E. coli DNA gyrase supercoiling inhibition assay (gel-based). It counts as biochemical. The note with it: for IC50: supercoiling assay, mean of 2 or 3 experiments, semi-quantitative.
For another data set, the system named is E. coli K12 MG1655 S83L. Briefly: MIC, broth microdilution, fluoroquinolone mutant strain. The note with it: Escherichia coli, MG1655, read-out: E. coli K12 MG1655 S83L MIC. It counts as cell-based.
A further data set deals with E. coli K12 MG1655. Briefly: MIC, broth microdilution. The data set is classed as cell-based. The note with it: Escherichia coli, MG1655, read-out: E. coli K12 MG1655 MIC. Background: In broth dilution the organism is exposed to a series of concentrations in liquid medium.
For data set [2], the target named is T1, E. coli topoisomerase IV. Briefly: biochemical. The data set is classed as biochemical.
A further data set has as its system S. aureus NCIMB 50080. Briefly: MIC, broth microdilution. It counts as cell-based.
Setting [3] is: Staphylococcus aureus, NCIMB50080; read-out: S. aureus NCIMB 50080 MIC.

Read-outs that look alike come from different tables or passages of the source. Marks after values point to notes of the source that are not given here.

What is called IC50 is the point on the concentration scale where inhibition reaches its midpoint. Regarding `Cl.NCC(NC(=O)c1cccc(-c2cccs2)c1)c1ccc(O)cc1` (stereo not drawn) [Compound 1], at E. coli topoisomerase IV [1], the 50% inhibitory concentration (IC50) is above 540 µM. In addition, the “S. aureus MIC” value in the data set with S. aureus is on record as 8 ^a μg mL^−1. The “E. coli MIC” value in the data set on E. coli is recorded as 8 ^a μg mL^−1.
`NC[C@H](NC(=O)c1cccc(-c2ccccc2)c1)c1ccccc1` [Compound 2]: the half-inhibitory concentration (IC50) at E. coli DNA gyrase stood at 60 µM.
Compound `COc1ccccc1-c1cccc(C(=O)N[C@@H](CN)c2ccccc2)c1` [Compound 3] yielded an IC50 on E. coli DNA gyrase of 20 µM.
Consider `CCOc1cccc(-c2cccc(C(=O)N[C@@H](CN)c3ccccc3)c2)c1` [Compound 4], for which it took 20 µM to reach half-maximal inhibition against E. coli DNA gyrase (IC50).
The MIC is the lowest concentration found to suppress growth. As for `Cl.NC[C@H](NC(=O)c1cccc(-c2ccccc2C(F)(F)F)c1)c1ccccc1` [Compound 5], the minimal inhibitory concentration (MIC) in the data set on E. coli K12 MG1655 S83L was 32 µg/mL; with E. coli K12 MG1655, 32 µg/mL; with S. aureus NCIMB 50080 (setting [3]), 16 µg/mL. Moreover, the figures for the IC50 against E. coli topoisomerase IV [2] and against E. coli DNA gyrase were above 100 µM and 21 µM, respectively.
For the compound `CCOc1cccc(-c2cccc(C(=O)N[C@@H](CN)c3ccccc3)c2)c1F.Cl` [Compound 6, N-[(1R)-2-amino-1-phenylethyl]-3'-ethoxy-2'-fluoro-[1,1'-biphenyl]-3-carboxamide hydrochloride], the MIC in the data set with E. coli K12 MG1655 S83L was 64 µg/mL; with E. coli K12 MG1655, 64 µg/mL; with S. aureus NCIMB 50080 (setting [3]), 32 µg/mL. For the same compound, the IC50 against E. coli topoisomerase IV [2] was above 100 µM; against E. coli DNA gyrase it was 12 µM. Besides, the “fold increase in binding affinity against gyrase vs. unsubstituted 2” value at E. coli DNA gyrase (relative to compound 2) came to 5 fold.
Usually melting point stands for the temperature of the solid-liquid transition. In turn, `CCOc1cc(-c2cccc(C(=O)N[C@@H](CN)c3ccccc3)c2)ccc1F.Cl` [Compound 7] gave a melting point of 219 to 221 °C. In addition, the MIC in the data set on E. coli K12 MG1655 S83L worked out at 32 µg/mL. Moreover, the MIC in the data set with E. coli K12 MG1655 stood at 32 µg/mL. Further, at E. coli topoisomerase IV [2], the IC50 is 64 µM. The “fold more potent against gyrase than topo IV” value on E. coli topoisomerase IV [2] (E. coli gyrase vs. E. coli topo IV) is around 4 fold. For the same compound, the MIC in the data set with S. aureus NCIMB 50080 (setting [3]) was 16 µg/mL. Moreover, inhibition at E. coli DNA gyrase was half-maximal at 17 µM (IC50).
Compound `NC[C@H](NC(=O)c1cccc(-c2cccc(O)c2)c1)c1ccccc1` [Compound 8] yielded a half-maximal inhibitory concentration (IC50) at E. coli DNA gyrase of 46 µM.
Compound `Cl.NC[C@H](NC(=O)c1cccc(-c2ccccc2Cl)c1)c1ccccc1` [Compound 9] gave a melting point of 160.5 to 163 °C. The compound further returned an IC50 at E. coli DNA gyrase of 35 µM.
Compound `NC[C@H](NC(=O)c1cccc(-c2cccc(Cl)c2)c1)c1ccccc1` [Compound 10] returned an IC50 at E. coli DNA gyrase of 39 µM.
For `Cl.NC[C@H](NC(=O)c1cccc(-c2cccc([N+](=O)[O-])c2)c1)c1ccccc1` [Compound 11], the MIC was above 128 µg/mL in the data set with E. coli K12 MG1655 S83L; above 128 µg/mL with E. coli K12 MG1655; above 128 µg/mL with S. aureus NCIMB 50080 (Staphylococcus aureus, NCIMB50080, read-out: S. aureus NCIMB 50080 MIC). The IC50 against E. coli topoisomerase IV [2] is 94 µM; against E. coli DNA gyrase, 73 µM.
`CC(=O)c1cccc(-c2cccc(C(=O)N[C@@H](CN)c3ccccc3)c2)c1.Cl` [Compound 12]: the melting point is ~ 238 °C (dec.). This compound displayed an IC50 against E. coli DNA gyrase of 42 µM.
Turning to `COC(=O)c1cccc(-c2cccc(C(=O)N[C@@H](CN)c3ccccc3)c2)c1.Cl` [Compound 13], the melting point was 212 to 215 °C. On E. coli DNA gyrase, this compound gave a concentration for half-maximal inhibition (IC50) of 24 µM.
Regarding `COC(=O)c1ccccc1-c1cccc(C(=O)N[C@@H](CN)c2ccccc2)c1.Cl` [Compound 14], the melting point fell in the range of 145 to 147 °C. The compound further had an IC50 against E. coli DNA gyrase of 41 µM.
For `Cl.NC[C@H](NC(=O)c1cccc(Br)c1)c1ccccc1` [Compound 15], the “fold drop in gyrase activity compared to 2” value on E. coli DNA gyrase (relative to compound 2) was “at least 3 fold”. Further, the IC50 against E. coli DNA gyrase was above 200 µM.
For `Cc1ccccc1C(=O)N[C@@H](CN)c1ccccc1` [Compound 21], at E. coli DNA gyrase, the IC50 was above 100 µM.
As to `Cc1cccc(C(=O)N[C@@H](CN)c2ccccc2)c1` [Compound 22], on E. coli DNA gyrase, the IC50 was above 100 µM.
For `Cc1ccc(C(=O)N[C@@H](CN)c2ccccc2)cc1.Cl` [Compound 23], on E. coli DNA gyrase (at 100 µM, Fig. S2), the “gyrase inhibition judged visually from gel” value is on record as “some inhibition”. The same compound gave an IC50 against E. coli DNA gyrase above 100 µM.
Compound `COc1ccccc1-c1cc(C(=O)N[C@@H](CN)c2ccccc2)ccc1C` [Compound 24] displayed an IC50 on E. coli DNA gyrase of 153 µM.
In the case of `CCOc1cccc(-c2cc(C(=O)N[C@@H](CN)c3ccccc3)ccc2C)c1` [Compound 25], at E. coli DNA gyrase, the IC50 was 63 µM.
As for `CCOc1cc(C)cc(-c2cc(C(=O)N[C@@H](CN)c3ccccc3)ccc2C)c1` [Compound 26], the IC50 against E. coli DNA gyrase was 56 µM.
`NC[C@H](NC(=O)c1cncc(-c2ccccc2Cl)c1)c1ccccc1` [Compound 27]: on E. coli DNA gyrase, the IC50 was determined as 35 µM.
`Cl.NC[C@@H](NC(=O)c1cccc(-c2ccccc2)c1)c1ccccc1` [Compound 28]: the melting point lay within 205 to 207 °C. For the same compound, on E. coli DNA gyrase, the IC50 is 76 µM.
Consider `COc1ccccc1-c1cccc(C(=O)N[C@H](CN)c2ccccc2)c1` [Compound 29], for which the IC50 on E. coli DNA gyrase turned out to be 36 µM.
As to `CCOc1cccc(-c2cccc(C(=O)N[C@H](CN)c3ccccc3)c2)c1.Cl` [Compound 30], on E. coli DNA gyrase (30 vs. 4), the “fold drop in gyrase activity of (S)-enantiomer vs. (R)-enantiomer” value worked out at 9 fold. Besides, half-maximal inhibition on E. coli DNA gyrase (IC50) was put at 180 µM.
With `COc1ccccc1-c1cccc(C(=O)NC(CN)c2cccc(O)c2)c1.Cl` (stereo not drawn) [Compound 31], the MIC with E. coli K12 MG1655 S83L was above 128 µg/mL; in the data set with E. coli K12 MG1655 it was above 128 µg/mL; in the data set with S. aureus NCIMB 50080 (setting [3]) it was 128 µg/mL. Further, the IC50 is above 100 µM at E. coli topoisomerase IV [2] and 41 µM at E. coli DNA gyrase.
In turn, `COc1ccccc1-c1cccc(C(=O)NC(CN)c2ccc(O)cc2)c1` (stereo not drawn) [Compound 32] displayed an IC50 against E. coli DNA gyrase of 45 µM.
Take `CCOc1cccc(-c2cccc(C(=O)NC(CN)c3cccc(O)c3)c2)c1` (stereo not drawn) [Compound 33]: at E. coli DNA gyrase, it took 41 µM to reach half-maximal inhibition (IC50).
On E. coli DNA gyrase, `CCOc1cccc(-c2cccc(C(=O)NC(CN)c3cccc(O)c3)c2)c1F` (stereo not drawn) [Compound 34] yielded a 50% inhibitory concentration (IC50) of 62 µM.
Same read-out and setting: the result for `CCOc1cccc(-c2cccc(C(=O)NC(CN)c3ccc(O)cc3)c2)c1F` (stereo not drawn) [Compound 35] reads above 200 µM.

These data come from publication PMC9298182, “De novo design of type II topoisomerase inhibitors as potential antimicrobial agents targeting a novel binding region” (RSC Medicinal Chemistry, 2022).
